Experiments:
[1] = test system: NIH/3T3 (mouse embryonic fibroblast) cell line; assay: MTT cytotoxicity assay, non-tumor NIH/3T3; type: cell-based; settings: for cytotoxic activity NIH/3T3: 0.0032 to 50 µM, 72 h
Procedure: (§1) ATCC CCL 247), 501Mel (melanoma; RRID: CVCL_4633), and MCF‐7 (breast adenocarcinoma; ATCC HTB 22), along with non‐tumor cells line NIH/3T3 (mouse embryonic fibroblast; ATCC CRL 1658). […] Cells were kept at 37°C in a humidified atmosphere containing 5% CO2. […] At the end of the incubation period, the culture medium was replaced with a fresh medium containing MTT solution (0.5 mg/mL) and further incubated for 3 h. The MTT solution was then removed, and the formazan crystals formed were dissolved in 150 µL of DMSO. Absorbance for each well was measured at 570 nm, and then the values thereof were normalized in the percentage of viable cells based on that of the negative control.

[2] = test system: 501Mel (melanoma) cell line; assay: MTT cytotoxicity assay, 501Mel; type: cell-based, human; settings: for cytotoxic activity 501Mel: 0.0032 to 50 µM, 72 h
Procedure: as §1

[3] = test system: MCF‐7 (breast adenocarcinoma) cell line; assay: MTT cytotoxicity assay, MCF-7; type: cell-based, human; settings: for cytotoxic activity MCF‐7: MTT, 0.0032 to 50 µM, 72 h
Procedure: as §1

[4] = test system: HCT‐116 (human colorectal carcinoma) cell line; assay: MTT cytotoxicity assay, HCT-116; type: cell-based; settings: for cytotoxic activity HCT‐116: MTT, 0.0032 to 50 µM, 72 h
Procedure: as §1

Row | SMILES | cytotoxic activity NIH/3T3 [1] | cytotoxic activity 501Mel ([2]; MTT) | cytotoxic activity MCF‐7 [3] | cytotoxic activity HCT‐116 [4] | IC50 ([1]; Mus musculus, NIH3T3, 72 h incubation, non-tumor cells) [nM] | Selectivity Index (SI) 501Mel ([2]; 501Mel versus NIH/3T3) | IC50 ([2]; Homo sapiens, MTT, 72 h incubation) [nM] | Selectivity Index (SI) MCF‐7 ([3]; MCF-7 versus NIH/3T3) | Selectivity Index (SI) HCT‐116 ([4]; HCT-116 versus NIH/3T3)
1 | COc1ccc(-c2coc3cc(OC)c(O)cc3c2=O)cc1 [Compound 2, Alfalone] | no cytotoxic activity | no cytotoxic activity | no cytotoxic activity | no cytotoxic activity |  |  |  |  | 
2 | COc1ccc(-c2coc3c(OC)c(O)ccc3c2=O)cc1 [Compound 3, 8‐O‐methylretusin] | no cytotoxic activity | no cytotoxic activity | no cytotoxic activity | no cytotoxic activity |  |  |  |  | 
3 | COc1cccc2c1C(=O)c1c(O)c3c(c(O)c1C2=O)C[C@@](O)(C(=O)CO)C[C@@H]3O[C@H]1C[C@H](N)[C@H](O)[C@H](C)O1 [Doxorubicin, reference compound] |  |  |  |  | 350 | 2.91 | 120 | 11.67 | 7.0

— paper PMC12533803, “Rotenoids from the Roots of Vicia faba L. (Fabaceae): Structural Characterization, Cytotoxic Effects, and Molecular Docking” (Chemistry & Biodiversity, 2025)
